Reference: patent publication US12384808B2, “Modulators of TNF-α activity” (Forward Therapeutics, Inc., priority 2022, dated 2025)

Each compound was assayed against TNFα (Homo sapiens, UniProt P01375) (assay: TNFα Induced HEK Blue Cellular Assay). Details: HEK Blue TNFα reporter cells, TNFα 100 pg/ml, 24 hrs at 37° C., secreted alkaline phosphatase (QUANTI-Blue) read at 620 nm; read-out: IC50 value.
Type: cell-based
Protocol: TNFα Induced HEK Blue Cellular Assay
Test articles were diluted in DMSO and serially diluted into 384 well assay plate (Corning 3765), at final concentrations ranging from […] to 0.5 nM. HEK Blue™ TNFα reporter cells were added at a final density of 10,000 cell per well in assay media [DMEM (Gibco, cat #21063-029), 10% fetal bovine serum (ExcelBio, cat #FND500), 1% Penicillin-Streptomycin (Solarbio, cat #P1400-100]. TNFα (R&D 210-TA-020/CF) was then added to the assay plate at a final concentration of 100 pg/ml. This plate was then incubated for 24 hrs at 37° C. and 5% CO2. Secreted alkaline phosphatase expression was then measured using QUANTI-Blue™ (Invivogen), according to manufacturer instructions and read on an Envision microplate reader at 620 nm.
Inhibition data for test compound over a range of concentration was plotted as percentage inhibition of the test compound (100%=maximum inhibition). IC50 values were determined after correcting for background [(sample read−mean of low control)/(mean of high control−mean of low control)] where by the low control is DMSO without stimulation and high control is DMSO with stimulation. The IC50 is defined as the concentration of test compound which produces 50% inhibition and was quantified using the 4 parameter logistic equation to fit the data.

TNFα, sequence (P01375 77-233 limits assumed): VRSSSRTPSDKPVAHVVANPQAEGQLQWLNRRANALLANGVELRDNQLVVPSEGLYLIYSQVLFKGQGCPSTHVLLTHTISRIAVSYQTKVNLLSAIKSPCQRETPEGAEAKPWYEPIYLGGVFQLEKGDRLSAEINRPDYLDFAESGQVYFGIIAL

Row | IC50 [nM] | Structure (SMILES)
1 | < 100 | [2H]C([2H])([2H])N1C(=O)c2cccc(OC(F)F)c2[C@H]2C[C@@H]1c1nc3ccc(-c4cnc(P(C)(C)=O)c(C)c4)cc3n12 [Example 134, (7R,14R)-1-(difluoromethoxy)-11-(6-(dimethylphosphoryl)-5-methylpyridin-3-yl)-6-(methyl-d3)-6,7-dihydro-7,14-methanobenzo[f]benzo[4,5]imidazo[1,2-a][1,4]diazocin-5(14H)-one]
2 | < 100 | [2H]C([2H])([2H])N1C(=O)c2cccc(OC(F)F)c2[C@H]2C[C@@H]1c1nc3ccc(-c4ccc([C@@H](C)P(C)(C)=O)c(F)c4C)cc3n12 (single isomer, unassigned) [Example 113, (7R,14R)-1-(difluoromethoxy)-11-(4-((R or S)-1-(dimethylphosphoryl)ethyl)-3-fluoro-2-methylphenyl)-6-(methyl-d3)-6,7-dihydro-7,14-methanobenzo[f]benzo[4,5]imidazo[1,2-a][1,4]diazocin-5(14H)-one]
3 | < 100 | CP(C)(=O)c1ccc(-c2ccc3nc4n(c3c2)[C@@H]2C[C@H]4NC(=O)c3cccc(OC(F)F)c32)c(Cl)c1 [Example 41, (1R,11R)-5-[2-chloro-4-(dimethylphosphoryl)phenyl]-18-(difluoromethoxy)-2,9,12-triazapentacyclo[9.8.1.0^{2,10}.0^{3,8}.0^{14,19}]icosa-3(8),4,6,9,14(19),15,17-heptaen-13-one]
4 | < 100 | [2H]C([2H])([2H])N1C(=O)c2cccc(OC(F)F)c2[C@H]2C[C@@H]1c1nc3ccc(-c4ccc(P(C)(C)=O)nc4F)cc3n12 [Example 92, (7R,14R)-1-(difluoromethoxy)-11-(6-(dimethylphosphoryl)-2-fluoropyridin-3-yl)-6-(methyl-d3)-6,7-dihydro-7,14-methanobenzo[f]benzo[4,5]imidazo[1,2-a][1,4]diazocin-5(14H)-one]
5 | < 100 | [2H]C([2H])([2H])N1C(=O)c2cccc(OC(F)F)c2[C@H]2C[C@@H]1c1nc3ccc(-c4ccc(P(C)(C)=O)nc4)cc3n12 [Example 17, (7R,14R)-1-(difluoromethoxy)-11-(6-(dimethylphosphoryl)pyridin-3-yl)-6-(methyl-d3)-6,7-dihydro-7,14-methanobenzo[f]benzo[4,5]imidazo[1,2-a][1,4]diazocin-5(14H)-one]
6 | < 100 | CCN1C(=O)c2cccc(OC(F)F)c2[C@H]2C[C@@H]1c1nc3ccc(-c4cc(F)c(P(C)(C)=O)c(F)c4)cc3n12 [Example 46, (1R,11R)-18-(difluoromethoxy)-5-[4-(dimethylphosphoryl)-3,5-difluorophenyl]-12-ethyl-2,9,12-triazapentacyclo[9.8.1.0^{2,10}.0^{3,8}.0^{14,19}]icosa-3(8),4,6,9,14(19),15,17-heptaen-13-one]
7 | < 100 | CP(C)(=O)COc1ncc(-c2ccc3nc4n(c3c2)[C@@H]2C[C@H]4NC(=O)c3cccc(OC(F)F)c32)s1 [Example 42, (1R,11R)-18-(difluoromethoxy)-5-{2-[(dimethylphosphoryl)methoxy]-1,3-thiazol-5-yl}-2,9,12-triazapentacyclo[9.8.1.0^{2,10}.0^{3,8}.0^{14,19}]icosa-3(8),4,6,9,14(19),15,17-heptaen-13-one]
8 | < 100 | [2H]C([2H])([2H])N1C(=O)c2cccc(OC(F)F)c2[C@H]2C[C@@H]1c1nc3ccc(-c4cnc(P(=O)(CC)CC)c(F)c4)cc3n12 [Example 127, (7R,14R)-11-(6-(diethylphosphoryl)-5-fluoropyridin-3-yl)-1-(difluoromethoxy)-6-(methyl-d3)-6,7-dihydro-7,14-methanobenzo[f]benzo[4,5]imidazo[1,2-a][1,4]diazocin-5(14H)-one]
9 | < 100 | [2H]C([2H])([2H])N1C(=O)c2cccc(OC(F)F)c2[C@H]2C[C@@H]1c1nc3ccc(-c4cc(F)c(P(C)(C)=O)c(OC)c4)cc3n12 [Example 129, (7R,14R)-1-(difluoromethoxy)-11-(4-(dimethylphosphoryl)-3-fluoro-5-methoxyphenyl)-6-(methyl-d3)-6,7-dihydro-7,14-methanobenzo[f]benzo[4,5]imidazo[1,2-a][1,4]diazocin-5(14H)-one]
10 | < 100 | [2H]C([2H])([2H])N1C(=O)c2cccc(OC(F)F)c2[C@H]2C[C@@H]1c1nc3ccc(-c4ccc(C(C)(C)P(C)(C)=O)nc4)cc3n12 [Example 120, (7R,14R)-1-(difluoromethoxy)-11-(6-(2-(dimethylphosphoryl)propan-2-yl)pyridin-3-yl)-6-(methyl-d3)-6,7-dihydro-7,14-methanobenzo[f]benzo[4,5]imidazo[1,2-a][1,4]diazocin-5(14H)-one]
11 | < 100 | [2H]C([2H])([2H])N1C(=O)c2cccc(OC(F)F)c2[C@H]2C[C@@H]1c1nc3ccc(-c4ccc(C(C)P(C)(C)=O)c(F)c4)cc3n12 (single isomer, unassigned) [Example 99, (7R,14R)-1-(difluoromethoxy)-11-(4-((S or R)-1-(dimethylphosphoryl)ethyl)-3-fluorophenyl)-6-(methyl-d3)-6,7-dihydro-7,14-methanobenzo[f]benzo[4,5]imidazo[1,2-a][1,4]diazocin-5(14H)-one]
12 | < 100 | CN1C(=O)c2cccc(OC(F)F)c2[C@H]2C[C@@H]1c1nc3ccc(-c4ccc(P(C)(C)=O)cc4)cc3n12 [Example 13, (1R,11R)-18-(difluoromethoxy)-5-[4-(dimethylphosphoryl)phenyl]-12-methyl-2,9,12-triazapentacyclo[9.8.1.0^{2,10}.0^{3,8}.0^{14,19}]icosa-3(8),4,6,9,14(19),15,17-heptaen-13-one]
13 | < 100 | [2H]C([2H])([2H])N1C(=O)c2cccc(OC(F)F)c2[C@H]2C[C@@H]1c1nc3ccc(-c4ccc(NCP(C)(C)=O)nc4)cc3n12 [Example 98, (7R,14R)-1-(difluoromethoxy)-11-(6-(((dimethylphosphoryl)methyl)amino)pyridin-3-yl)-6-(methyl-d3)-6,7-dihydro-7,14-methanobenzo[f]benzo[4,5]imidazo[1,2-a][1,4]diazocin-5(14H)-one]
14 | 100 to 1000 | [2H]C([2H])([2H])N1C(=O)c2cccc(OC(F)F)c2[C@H]2C[C@@H]1c1nc3ccc(-c4ccc(P(C)(C)=O)c(C(F)(F)F)c4)cc3n12 [Example 122, (7R,14R)-1-(difluoromethoxy)-11-(4-(dimethylphosphoryl)-3-(trifluoromethyl)phenyl)-6-(methyl-d3)-6,7-dihydro-7,14-methanobenzo[f]benzo[4,5]imidazo[1,2-a][1,4]diazocin-5(14H)-one]
15 | < 100 | CP(C)(=O)c1ccc(-c2cc3c(cc2F)nc2n3[C@@H]3C[C@H]2NC(=O)c2cccc(OC(F)F)c23)cc1F [Example 66, (7R,14R)-1-(difluoromethoxy)-11-(4-(dimethylphosphoryl)-3-fluorophenyl)-10-fluoro-6,7-dihydro-7,14-methanobenzo[f]benzo[4,5]imidazo[1,2-a][1,4]diazocin-5(14H)-one]
16 | < 100 | CN1C(=O)c2cccc(OC(F)F)c2[C@H]2C[C@@H]1c1nc3ccc(-c4cc(F)c(CP(C)(C)=O)c(F)c4)cc3n12 [Example 77, (7R,14R)-1-(difluoromethoxy)-11-(4-((dimethylphosphoryl)methyl)-3,5-difluorophenyl)-6-methyl-6,7-dihydro-7,14-methanobenzo[f]benzo[4,5]imidazo[1,2-a][1,4]diazocin-5(14H)-one]
17 | < 100 | CCP(=O)(CC)c1ccc(-c2ccc3nc4n(c3c2)[C@@H]2C[C@H]4NC(=O)c3cccc(OC(F)F)c32)c(F)c1 [Example 138, (7R,14R)-11-(4-(diethylphosphoryl)-2-fluorophenyl)-1-(difluoromethoxy)-6,7-dihydro-7,14-methanobenzo[f]benzo[4,5]imidazo[1,2-a][1,4]diazocin-5(14H)-one]
18 | 100 to 1000 | CP(C)(=O)c1ncc(-c2ccc3nc4n(c3c2)[C@@H]2C[C@H]4NC(=O)c3cccc(OC(F)F)c32)cn1 [Example 1, (7R,14R)-1-(difluoromethoxy)-11-(2-(dimethylphosphoryl)pyrimidin-5-yl)-6,7-dihydro-7,14-methanobenzo[f]benzo[4,5]imidazo[1,2-a][1,4]diazocin-5(14H)-one]
19 | < 100 | CCN1C(=O)c2cccc(OC(F)F)c2[C@H]2C[C@@H]1c1nc3ccc(-c4ccc(P(C)(C)=O)cc4)cc3n12 [Example 49, (1R,11R)-18-(difluoromethoxy)-5-[4-(dimethylphosphoryl)phenyl]-12-ethyl-2,9,12-triazapentacyclo[9.8.1.0^{2,10}.0^{3,8}.0^{14,19}]icosa-3(8),4,6,9,14(19),15,17-heptaen-13-one]
20 | < 100 | [2H]C([2H])([2H])N1C(=O)c2cccc(OC(F)F)c2[C@H]2C[C@@H]1c1nc3ccc(-c4ccc([C@@](C)(O)P(C)(C)=O)cc4)cc3n12 (single isomer, unassigned) [Example 111, (7R,14R)-1-(difluoromethoxy)-11-(4-((R or S)-1-(dimethylphosphoryl)-1-hydroxyethyl)phenyl)-6-(methyl-d3)-6,7-dihydro-7,14-methanobenzo[f]benzo[4,5]imidazo[1,2-a][1,4]diazocin-5(14H)-one]
